For one data set, the target named is T1, MMP-1 (Homo sapiens, UniProt P03956).
T1 sequence (P03956 100-469): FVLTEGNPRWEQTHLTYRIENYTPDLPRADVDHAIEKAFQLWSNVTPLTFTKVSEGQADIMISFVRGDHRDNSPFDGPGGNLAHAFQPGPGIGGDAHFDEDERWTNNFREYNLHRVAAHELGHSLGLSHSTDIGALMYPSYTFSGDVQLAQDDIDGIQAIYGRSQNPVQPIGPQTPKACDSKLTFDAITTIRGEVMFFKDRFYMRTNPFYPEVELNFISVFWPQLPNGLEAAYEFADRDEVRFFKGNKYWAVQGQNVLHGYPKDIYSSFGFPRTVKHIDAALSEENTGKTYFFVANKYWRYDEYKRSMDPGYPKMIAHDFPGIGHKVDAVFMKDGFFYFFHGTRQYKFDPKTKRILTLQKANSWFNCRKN
Nature of the data set: MMP-1 inhibition (thiopeptide or fluorescent peptide substrate). Type of data set: biochemical.

Protocol for MMP-1: The enzyme activity is measured by the rate of the color increase. The thiopeptide substrate is made up fresh as a 20 mM stock in 100% DMSO and the DTNB is dissolved in 100% DMSO as a 100 mM stock and stored in the dark at room temperature. Both the substrate and DTNB are diluted together to 1 mM with substrate buffer (50 mM HEPES pH 7.5, 5 mM CaCl2) before use. The stock of enzyme is diluted with buffer (50 mM HEPES, pH 7.5, 5 mM CaCl2, 0.02% Brij) to the desired final concentration.
For either the thiopeptide or fluorescent peptide test procedures, the slope of the line is calculated and represents the reaction rate. The linearity of the reaction rate is confirmed (r^2>0.85). The mean (x±sem) of the control rate is calculated and compared for statistical significance (p<0.05) with drug-treated rates using Dunnett's multiple comparison test.

Turning to `CC#CCOc1ccc(S(=O)(=O)N(C)c2c(C(=O)NO)cnc3c2c(C)nn3C)cc1` [Example 7, 4-[(4-But-2-ynyloxy-benzenesulfonyl)-methyl-amino]-1,3-dimethyl-1H-pyrazolo[3,4-b]pyridine-5-carboxylic acid hydroxyamide], the melting point fell in the range of 189 to 192 °C. Consider `CC#CCOc1ccc(S(=O)(=O)N(C)c2c(C(=O)NO)cnc3onc(C)c23)cc1` [Example 9, 4-[(4-But-2-ynyloxy-benzenesulfonyl)-methyl-amino]-3-methyl-isoxazolo[5,4-b]pyridine-5-carboxylic acid hydroxyamide], for which the half-inhibitory concentration (IC50) on MMP-1 is 1.91 µM. The compound `CC#CCOc1ccc(S(=O)(=O)N(C)c2c(C(=O)NO)cnc3snc(C)c23)cc1` [Example 13, 4-[(4-But-2-ynyloxy-benzenesulfonyl)-methyl-amino]-3-methyl-isothiazolo[5,4-b]pyridine-5-carboxylic acid hydroxyamide] came in with a melting point of 183 to 184 °C.

Source of the values: patent US6946473B2, “Preparation and use of acetylenic ortho-sulfonamido and phosphinic acid amido bicyclic heteroaryl hydroxamic acids as TACE inhibitors” (priority 1999, dated 2005).
